In patent publication US10555959B2, “Glycolipids as treatment for disease” (La Jolla Pharmaceutical Company, priority 2009, dated 2020):

Key:
SUR-1−/− Mice = details: cited from earlier work
[1] = system: C57B1/6 mice treated with MPTP; test: Animal model of Parkinson's and atypical Parkinson's disease (MPTP); assay type: in vivo, mouse; details: daily administration for three weeks
Experimental: C57B1/6 mice 7-8 weeks of age can be treated with MPTP (b.i.d., 20 mg/kg, s.c.). The mice also receive a daily administration of saline, compound of formula (1), (2), (3), (4), (5), (6), (7), (8), (9) or (10) (1, 10 and 30 mg/kg, o.s.) or (0.3. to 3 mg/kg, i.p. or s.c.) for three weeks starting 24 h after the last MPTP injection. The brains are removed and analyzed for striatum and substantia nigra pars compacta dopamine levels. The midbrain is fixed for TH immunohistochemistry and dopamine neuron cell counts.

mouse cortical cells = test: Protection of cortical cells from apoptosis (hydrogen peroxide, MTT assay); assay type: cell-based; details: approx. 0.1 μM; 50 μM hydrogen peroxide; cell death by MTT assay
Experimental: To induce apoptosis, mouse cortical cells were cultured and treated with 50 μM hydrogen peroxide for three hours prior to being treated with the ganglioside analogue.
The cells were also treated with the hydrogen peroxide during treatment with the ganglioside analogue and post-treatment for 48 h. Cell death was assayed using the MTT assay.

melanoma = details: cited from earlier work
human adippose tissue = details: human adipose tissue, in vitro; cited from earlier work
KATP channels = details: in vitro; by activation of the KATP channels; ceramide fatty acid of C16:0; cited from earlier work

With Exendin-(9-39) as the substance, how does the “fasting blood glucose levels” value (SUR-1−/− Mice) read?
The value was “Significantly Raises”.

Which striatal dopamine levels [1] does the source give for Gal3GalNAc4(Neu5Ac3)Gal4GlcCer [GM1] here?
Its striatal dopamine levels is “increase striatal dopamine levels to approximately the same extent”.

And the “protection of the cells from apoptosis” value (mouse cortical cells)?
Its value is “approximately 20%”.

For “Gal3GalNAc4(Neu5Ac8Neu5Ac3)Gal4GlcCer [GD1b]”, which growth of melanoma (melanoma) is on record?
Its growth of melanoma is “suppress”.

With “Neu5Ac3Gal3GalNAc4(Neu5Ac8Neu5Ac3)Gal4GlcCer [GT1b]” as the substance, how does the growth of melanoma (melanoma) read?
Its growth of melanoma is “suppress”.

Which growth of melanoma (melanoma) does the source give for “Neu5Ac8Neu5Ac3Gal3GalNAc4(Neu5Ac8Neu5c3)Gal4GlcCer [GQ1b]” here?
The growth of melanoma was “suppress”.

Which results are given for sulfatide?
expression of adiponectin (human adippose tissue): increased; levels of IL-6 (human adippose tissue): decreasing; levels of IL-8 (human adippose tissue): decreasing; levels of TNF-alpha (human adippose tissue): decreasing; glucose stimulation of insulin secretion (KATP channels): inhibited
